The values that follow come from US20160067314A1, “COMPOSITIONS AND METHODS FOR INHIBITING CHEMORESISTANCE IN CANCER AND IMPROVING RESPONSE TO THERAPY” (UNIVERSITY OF VIRGINIA PATENT FOUNDATION, priority 2013, published 2016).

In data set [1] the test system is focal adhesion kinase and p130cas. Conditions: observed at nM concentrations; cited from earlier work.
In the next data set the test system is human melanoma. Conditions: mouse xenografts of human melanoma, previous report [7]; cited from earlier work. A general note: A xenograft is tissue or cells of one species grown in another, often human tumour cells in immunodeficient mice.
The test system of data set [2] is M21 melanoma cells. Briefly: Cell survival of non-adherent cells after FN-COMP and X-irradiation. The class given is cell-based, human. The following applies: M21 suspended, FN-COMP 40 μg/ml 30-45 min, then 10 Gy X-irradiation, survival 72 h later. The protocol: (§1) (A) M21, (B) VMM12 or (C) VMM18 melanoma cells were left adherent (Ad) or detached and kept in suspension (Sus) for 1 h. Suspended cells were then treated with of FN-COMP (FNC) at 40 μg/ml for 30-45 min followed by treatment with either 10 Gy X-irradiation (A) or Ara-C at 10 μM (B and C). Cell survival was assayed 72 h later. Values are means } SE, n=3. *P<0.05.
(§2) The human melanoma cell lines; M21, VMM12, VMM18 were cultured as described. Cell survival assays and colony assay were performed as described. Cells were irradiated using an X-ray irradiator at a dose rate of 3.3 Gy/min.

A further data set has as its system VMM18 melanoma cells. Briefly: Cell survival of non-adherent cells after FN-COMP and Ara-C. It counts as cell-based, human. Conditions: VMM18 suspended, FN-COMP 40 μg/ml 30-45 min, then Ara-C 10 μM, survival 72 h later. The protocol: as §1, §2
In data set [3] the test system is VMM12 melanoma cells. Described as above. The class given is cell-based, human. The following applies: VMM12 suspended, FN-COMP 40 μg/ml 30-45 min, then Ara-C 10 μM, survival 72 h later. The protocol:
as §1, §2

Another data set relates to integrin signaling. Briefly: Tyrosine phosphorylation in suspended cells, Western blot with pY20. The class given is cell-based. The following applies: suspended M21 melanoma or mouse 3T3 cells, FN-COMP 40 μg/ml. The protocol:
FIG. 2, Example 2—FN-COMP stimulates signaling in vitro. Either M21 melanoma or mouse 3T3 cells were left adherent (Ad) or detached and kept in suspension (sus) for 1 h. Suspended cells were either treated with of FN-COMP at 40 μg/ml for indicated times or left untreated. Lysates were analyzed by Western blotting using antiphosphotyrosine antibody pY20. Tubulin was used as a loading control. n=2.
Cells were lysed as previously described. Proteins were separated on SDS-PAGE gels, transferred, blocked, and probed with the indicated primary antibodies. Blots were washed, incubated with secondary antibodies and developed using ECL reagents (Pierce) and film (Kodak). FN-COMP under reducing and non-reducing condition was loaded on SDSPAGE gels and was subjected electrophoresis. Gels were stained with Coomassie Blue to visualize the bands.
A general note: A western blot detects proteins with antibodies after separation by electrophoresis.

In data set [4] the test system is subcutaneous M21 tumors. Briefly: Mouse tumor growth, subcutaneous M21 tumors, FN-COMP and/or cisplatin. The class given is in vivo. The following applies: SCID mice; for Tumor growth / tumor size: s.c. M21 tumors, i.p., three treatments ~1 week apart, cisplatin 8 then 3.5 mg/kg, FN-COMP 500 μg/mouse. The protocol: (§3) FIG. 4, Example 2—FN-COMP in chemotherapy in vivo. (A) SCID mice were injected with 500 μg of FN-COMP. At the indicated times, plasma was analyzed by western blotting for fibronectin (FN). (B) Mice with palpable subcutaneous tumors were treated with cisplatin (CD), FN-COMP (FNC) alone, or CD plus FNC. Mice received 3 successive treatments 1 week apart. Tumor volumes were then followed. Values are means±SE, n=10-15 mice. For CD vs. CD+FNC: *P<0.0031. The error bars are asymmetric because the analysis was done in the log-scale, and then converted back to the original scale. Qualitatively similar results were obtained in 2 independent experiments.
(§4) Tumor generation in 6-8 wk old male SCID mice (Charles River Laboratories) and tumor measurement were done as described. When tumors were first palpable, mice were injected intraperitoneally (i.p.) with cisplatin (8 mg/kg: first week and 3.5 mg/kg: second and third weeks), FN-COMP (500 μg/mouse) or both for 3 consecutive weeks. The tumor volumes were recorded weekly. To assay levels in the blood, SCID mice with no tumors were injected intraperitoneally with FN-COMP (500 μg/mouse). Blood was collected at 0, 3, 6, or 24 h post injection. Plasma was subjected to Western blotting with the indicated antibodies. All animal procedures were done according to our institutional Animal Care and Use Committee guidelines.
Statistical analyses were done as described. Briefly, repeated measures models were used to compare tumor growth in control, cisplatin alone, FN-COMP alone and cisplatin+FN-COMP groups. These models account for the correlations among measurements taken from the same animal over time. We used linear models for the log-transformed tumor growth and the assumption that the correlation between measurements decreases with the amount of time between the measurements. F-tests based on contrasts were used to make specific comparisons between groups. All analyses were carried out in SAS 9.2 and GAUSS 10.0.

Data set [5] can be described thus: FN-COMP levels in blood after intraperitoneal injection, plasma Western blot for fibronectin. It counts as in vivo. Conditions: SCID mice, 500 μg/mouse i.p. As for the experimental part: as §3, §4
Data set [6] has as its system VMM12 melanoma cells. Kind of data set: Short term survival assay after chemotherapy, adherent or suspended cells. It counts as cell-based, human. The following applies: VMM12, siRNA transfected, 10 μM cisplatin, 3 days. As for the experimental part: (§5) FIG. 2. ALCAM mediates detachment-induced therapy resistance. (A) ALCAM expression by RT-PCR in M21 melanoma cells after transfection with indicated siRNAs. Values are means±SE. (B) Proliferation of M21 cells expressing either ALCAM or control siRNA. 5×10^5 cells were plated and after 72 h counted. Values are means±SD, (C) Short term survival assays—cells transfected with the indicated siRNAs were treated with chemotherapy (M21:10 μM Ara-C; VMM12:10 μM cisplatin) while adherent (Ad) or suspended (Sus). Cell survival was assayed after 3 days. Values are means±SE, n>3. (D) Adherent or suspended M21 cells were treated with 10 μM Ara-C, then washed and re-plated, and colonies counted after 10 days. Values are means±SD, n=3. **P<0.01, *P<0.05
(§6) We next asked whether ALCAM might play a causal role in chemoresistance induced by loss of integrin-mediated cell adhesion. We therefore designed and tested several siRNA sequences. […] We next examined chemosensitivity in adherent and suspended M21 and VMM12 melanoma lines. Cells transfected with two distinct ALCAM siRNAs (#10 or #11), or control siRNA, were treated with chemotherapy for 3 days, then survival assayed by re-plating on fibronectin. […] Control siRNA had no effect in either condition.
(§7) ALCAM can mediate homophilic adhesion, as well as heterophilic adhesion to CD6, both of which are blocked by a monoclonal antibody, AZN-L50 (van Kempen J Biol Chem. 2001; 276:25783-90; Zimmerman Blood. 2006; 107:3212-20). […] M21 and VMM12 cells were subject to chemotherapy for 72 h while adherent or suspended, in the presence or absence of AZN-L50. Survival was then assayed as before.
(§8) The human melanoma cell lines; M21, VMM12, VMM15, VMM1, VMM5A, VMM18 were cultured as described [Molhoek, 2008; Schwartz, 2008]. RPMI7951, A208, and A375.S2 were cultured in DMEM/F12 medium supplemented with 5% heat inactivated fetal bovine serum, 15 mM HEPES and penicillin-streptomycin. FM3 cells were grown in DMEM supplemented with 10% fetal bovine serum and penicillin-streptomycin. Cell survival assays and colony assay were performed as described before [Schwartz, 2008].

The subject of data set [7] is M21 melanoma cells. Described as above. Conditions: M21, siRNA transfected, 10 μM Ara-C, 3 days. It counts as cell-based, human. As for the experimental part:
as §5, §6, §7, §8

A further data set relates to A208 cells. Briefly: Ara-C concentration killing ~85% of adherent cells (preliminary experiments). It counts as cell-based, human. The following applies: Ara-C for 3 days.
Source text: (§9) FIG. 1. ALCAM correlates with detachment-induced therapy resistance. Relative ALCAM expression levels in melanoma measured by (A) microarray analysis and (B) RT-PCR. Expression levels are normalized to M21. Values are means±SE. (C) Relative ALCAM expression versus cell survival in additional melanoma cell lines. The graph represents detachment-induced resistance (“delta”) as the fold difference in survival between suspended versus adherent cells. Survival of adherent and suspended cells after treatment with chemotherapy (Ara-C) for 3 days was determined by replating on fibronectin. Concentrations of Ara-C were chosen for each cell line to kill ˜85% of adherent cells as determined in preliminary experiments. Concentrations were: A208 cells, 0.5 μM; A375.S2 cells, 0.3 μM; RPMI7951 cells, 5 μM, FM3: 10 μM). (D) Delta was plotted against ALCAM message level determined by RT-PCR. Values are means±SE, n>3.
as §8

The next data set has as its system RPMI7951 cells. The data set is described as above. It counts as cell-based, human. Conditions: Ara-C for 3 days.
Source text: as §9, §8

The test system of another data set is FM3. The data set is described as above. Conditions: Ara-C for 3 days. The class given is cell-based, human.
Source text: as §9, §8

In a further data set the test system is A375.S2 cells. The description is as above. The class given is cell-based, human. The following applies: Ara-C for 3 days.
Source text: as §9, §8

Data set [8] relates to subcutaneous M21 tumors. Kind of data set: Mouse tumor growth, subcutaneous M21 tumors, AZN-L50 and/or cisplatin. The class given is in vivo. Conditions: SCID mice, s.c. M21 tumors, i.p., two treatments ~1 week apart; cisplatin 8 then 3.5 mg/kg, AZN-L50 100 μg/mouse.
Procedure: (A) Mice with palpable subcutaneous tumors were treated with cisplatin alone (CD), AZN-L50 (AZN) alone, or CD plus AZN-L50 (AZN+CD). Mice received 2 treatments 1 week apart. Tumor volume was then followed. Values are means±SE; n=8-11 mice.
Tumor generation and measurement was done as described [Schwartz, 2008]. Briefly male SCID mice (Charles River) were injected s.c. with 100,000 M21 cells. When tumors were first palpable, mice were injected I.P with cisplatin (8 mg/kg: first week and 3.5 mg/kg: second week), AZN-L50 (100 μg/mouse) or both for 2 consecutive weeks. The tumor volumes were recorded weekly.
All statistical analyses were done as described [Schwartz, 2008]. Briefly repeated measures models were used to compare tumor growth in control, cisplatin alone, AZN-L50 alone and cisplatin+AZN-L50 groups. These models account for the correlations among measurements taken from the same animal over time. We used linear models for the log-transformed tumor growth and the assumption that the correlation between measurements decreases with the amount of time between the measurements. F-tests based on contrasts were used to make specific comparisons between groups. All analyses were carried out in SAS 9.2 and GAUSS 10.0.

On to contortrostatin, for which the “Tyrosine phosphorylation of integrin targets” value in data set [1] is “strongly increased”. Moreover, the “Therapeutic responses when combined with chemotherapy” value with human melanoma was “improved therapeutic responses”.

In the case of “FN-COMP: homo-pentameric construct of fibronectin peptides (type III repeats 5-11) linked by the assembly domain of COMP (amino acid residues 27-84)”, the “Response to therapy (radiosensitivity) of non-adherent cells” value with M21 melanoma cells [2] was “improved chemo and radiosensitivity”. Besides, the “Response to therapy (chemosensitivity) of non-adherent cells” value in the data set with VMM18 melanoma cells is “no effect”; with VMM12 melanoma cells [3], “improved chemo and radiosensitivity”. Further, the “Tyrosine phosphorylation (characteristic of integrin signaling)” value with integrin signaling is “increased tyrosine phosphorylation of bands around 60, 75 and 125 kD”. Besides, the “Side effects in the mice” value in the data set with subcutaneous M21 tumors [4] (3 weekly i.p. treatments) was “not observed”. For the same compound, the “Tumor growth / tumor size” value with subcutaneous M21 tumors [4] is recorded as “Neither FN-COMP alone nor cisplatin alone had significant effects on tumor growth”. The “Stability in blood after injection” value in data set [5] is given as “at least 24 h”. Also, in data set [5], the “Time of appearance in the blood” value is given as no more than 3 h.

Take “ALCAM siRNA #11: siRNA that targets ALCAM, 5′-CACCTGCTCGGTGACATATTA-3′ (SEQ ID NO:4), described before [Hong, 2010] (other strand not cited, further chemistry not given here)”: the “Cell survival, adherent cells” value in the data set on VMM12 melanoma cells [6] and in the data set with M21 melanoma cells [7] was “no effect” each time. Moreover, the “Cell survival, suspended cells” value in the data set with VMM12 melanoma cells [6] and with M21 melanoma cells [7] was “drastically reduced cell survival” each time.

With `Nc1ccn([C@@H]2O[C@H](CO)[C@@H](O)[C@@H]2O)c(=O)n1` [Ara-C, 1-β-D-arabinofuranosylcytosine], the “Concentration of Ara-C chosen to kill ˜85% of adherent cells” value was 0.5 µM in the data set with A208 cells, 5 µM in the data set with RPMI7951 cells, 10 µM with FM3 and 0.3 µM with A375.S2 cells.

`N.N.[Cl][Pt][Cl]` [cisplatin, cis-Dichlorodiamine platinum(II)]: the “Tumor growth / tumor size” value in the data set on subcutaneous M21 tumors [4] was “Neither FN-COMP alone nor cisplatin alone had significant effects on tumor growth”; in the data set on subcutaneous M21 tumors [8] it was “Neither AZN-L50 alone nor cisplatin alone had significant effects on tumor growth”.

Take “ALCAM siRNA #10: siRNA that targets ALCAM, 5-GGAAACUAUGUCUGCGAAA-3 (SEQ ID NO:5) (listed as RNA, chemistry not given here)”: in the data set with VMM12 melanoma cells [6], the “Cell survival, adherent cells” value is listed as “no effect” and the “Cell survival, suspended cells” value was “drastically reduced cell survival”. In the data set with M21 melanoma cells [7], the “Cell survival, adherent cells” value was “no effect” and the “Cell survival, suspended cells” value is on record as “drastically reduced cell survival”.
